Results as given in US5789434A, “Derivatives of substituted 4-biarylbutyric acid as matrix metalloprotease inhibitors” (priority 1995, dated 1998).

How the values were obtained:
Type in all cases: biochemical
[1] = biological target: T1, MMP-3 (Homo sapiens, UniProt P08254); experiment: Automated MMP Profiling Assay, MMP-3 fluorogenic; settings: for IC50: 96-well automated, P218
T1 construct: Truncated Prostromelysin-257 was expressed in a soluble form in E.coli; made in house; host or cells: E. coli
T1 sequence (P08254 100-274 limits assumed): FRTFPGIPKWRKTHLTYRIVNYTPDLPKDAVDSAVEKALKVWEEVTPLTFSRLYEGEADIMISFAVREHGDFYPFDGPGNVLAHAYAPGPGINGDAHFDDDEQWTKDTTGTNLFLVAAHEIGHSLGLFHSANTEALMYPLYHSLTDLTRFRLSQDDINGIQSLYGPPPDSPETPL
Excerpt: This assay with each invention compound was run with the three enzymes MMP-3, MMP-9 and MMP-2 in parallel as adapted for a 96-well microtitre plate using a Hamilton A® workstation.

[2] = biological target: T2, MMP-9 (Homo sapiens, UniProt P14780); experiment: Automated MMP Profiling Assay, MMP-9 fluorogenic; settings: for IC50: 96-well automated, P218
T2 construct: from tissue; host or cells: human polymorphonuclear leukocytes (PMN) from whole blood (New York Blood Center), PMA-stimulated supernatant
T2 sequence (P14780 107-707 limits assumed): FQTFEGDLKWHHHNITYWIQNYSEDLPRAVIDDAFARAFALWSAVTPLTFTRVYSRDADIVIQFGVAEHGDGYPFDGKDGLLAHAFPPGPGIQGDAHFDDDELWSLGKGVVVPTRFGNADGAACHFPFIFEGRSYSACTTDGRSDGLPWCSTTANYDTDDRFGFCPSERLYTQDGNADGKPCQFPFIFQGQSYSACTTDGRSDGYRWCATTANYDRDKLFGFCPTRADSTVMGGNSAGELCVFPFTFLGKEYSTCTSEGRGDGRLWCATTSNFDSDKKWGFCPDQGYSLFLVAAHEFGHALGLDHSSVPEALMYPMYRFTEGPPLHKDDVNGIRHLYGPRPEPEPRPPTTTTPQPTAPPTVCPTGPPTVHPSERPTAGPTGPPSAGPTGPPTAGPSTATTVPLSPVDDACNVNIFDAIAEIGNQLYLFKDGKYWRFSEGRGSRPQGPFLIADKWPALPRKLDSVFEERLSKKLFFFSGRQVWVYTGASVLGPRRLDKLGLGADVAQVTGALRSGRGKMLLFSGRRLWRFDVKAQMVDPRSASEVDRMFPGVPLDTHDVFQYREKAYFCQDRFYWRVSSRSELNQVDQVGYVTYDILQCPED
Experimental: Briefly, polymorphonuclear leukocytes (PMN) preparations were isolated as described above from 3 or more units of freshly drawn whole blood obtained from the New York Blood Center (New York, N.Y.). Cells were resuspended in phosphate buffered saline (PBS) containing 100 ng/ml phorbol myristate acetate (PMA) in the presence of 50 mM diisopropylfluorophospate (DFP), 1 μg/ml leupeptin and aprotinin, and 1 mg/ml catalase for 1 hr at 37° C. Supernatants were collected by centrifugation (300×g) and the samples were frozen at -70° C. All chromatographic methods were performed at 4° C. Thawed samples were concentrated 5-fold using an Amicon chamber equipped with a YM-10 membrane. The concentrate was pressure dialyzed against 0.02M Tris-HCl, 0.1M NaCl, 1 mM CaCl2, 1 μM ZnCl2, 0.001% Brij-35, 0.02% sodium azide (NaN3), pH 7.5 and applied to DEAE ion exchange chromatography resin which was previously equilibrated with the same buffer at a flow rate of 0.4 ml/min. The column was extensively washed with the same buffer and gelatinase was eluted as 4 ml fractions from the column with 0.02M Tris-HCl, 0.5M NaCl, 1 mM CaCl2, 1 μM ZnCl2, 0.001% Brij-35, 0.02% NaN3, pH 7.5. Gelatinase containing fractions were observed by gelatin zymography (see below), loaded onto a gelatin agarose affinity resin and washed with the same buffer. Gelatinase activity was eluted at a flow rate of 1 ml/min from the column as 1 ml fractions with 0.02M Tris-HCl, 1M NaCl, 1 mM CaCl2, 1 μM ZnCl2, 0.001% Brij-35, 0.02% NaN3, pH 7.5 containing 10% dimethyl sulfoxide (DMSO). The fractions containing gelatinase activity were pooled and dialyzed against 0.005M Tris-HCl, 5 mM NaCl, 0.5 mM CaCl2, 0.1 μM ZnCl2, 0.001% Brij-35, pH 7.4. The protein content associated with material was determined with a micro-BCA assay (Pierce, Rockford, Ill.), lyophilized and reconstituted to a desired working concentration (100 μg/ml).
This assay was run with a protocol analogous to that reported for MMP-3 inhibition using the synthetic peptide P218 and each of the three enzymes and measuring quenched fluorescence. This assay with each invention compound was run with the three enzymes MMP-3, MMP-9 and MMP-2 in parallel as adapted for a 96-well microtitre plate using a Hamilton A® workstation.

[3] = biological target: T3, MMP-2 (Homo sapiens, UniProt P08253); experiment: Automated MMP Profiling Assay, MMP-2 fluorogenic; settings: 96-well automated, P218; read-out: MMP-2 Fluorogenic IC50 (profiling)
T3 sequence (P08253 110-660): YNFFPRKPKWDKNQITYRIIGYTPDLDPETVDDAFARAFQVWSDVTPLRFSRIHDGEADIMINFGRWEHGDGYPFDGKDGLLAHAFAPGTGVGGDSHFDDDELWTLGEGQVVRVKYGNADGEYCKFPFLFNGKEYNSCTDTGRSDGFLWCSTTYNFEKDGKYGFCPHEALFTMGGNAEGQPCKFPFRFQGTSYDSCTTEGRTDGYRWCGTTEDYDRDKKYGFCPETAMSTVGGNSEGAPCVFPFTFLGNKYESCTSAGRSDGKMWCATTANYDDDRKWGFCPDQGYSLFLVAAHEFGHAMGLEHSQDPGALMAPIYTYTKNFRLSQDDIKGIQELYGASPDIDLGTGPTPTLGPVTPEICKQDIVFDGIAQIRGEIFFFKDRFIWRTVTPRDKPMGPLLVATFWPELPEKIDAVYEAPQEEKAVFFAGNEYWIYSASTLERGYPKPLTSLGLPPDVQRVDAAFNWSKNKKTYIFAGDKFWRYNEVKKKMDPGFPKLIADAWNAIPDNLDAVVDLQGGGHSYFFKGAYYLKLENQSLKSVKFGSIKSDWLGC

[4] = biological target: T2, MMP-9; experiment: Thiopeptilide MMP-9 Inhibition Assay; settings: for IC50: pH 6.5, x (n) = average of n determinations, read-out: MMP-9: Thiopep. IC50; for inhibition at 5 µM: read-out: MMP-9: Thiopep. % inhibition
[5] = biological target: T1, MMP-3; experiment: Primary Thiopeptilide MMP-3 Inhibition Assay; settings: for IC50: pH 6.5, 13 nM stromelysin, x (n) = average of n determinations, read-out: MMP-3 Thiopep. IC50; for inhibition at 5 µM: read-out: MMP-3 Thiopep. % inhibition

SMILES | inhibition at 5 µM [4] [%] | IC50 [1] [nM] | IC50 [2] [nM] | IC50 [3] [nM] | further results
O=C(CC(CCN1C(=O)c2ccccc2C1=O)C(=O)O)c1ccc(-c2ccc(Cl)cc2)cc1 (racemic) [Example 267, 4-[4-(4-chlorophenyl)phenyl]-4-oxo-2-(2-phthalimidoethyl)butanoic acid] | – | 15 | 3 | 2.6 | –
O=C(O)[C@H]1CN(C(=O)OCc2ccccc2)C[C@@H]1C(=O)c1ccc(-c2ccc(Cl)cc2)cc1 (relative stereo) [Example 174, 1,3-Pyrrolidinecarboxylic acid, 4-[(4'-chloro[1,1'-biphenyl]-4-yl)carbonyl]-1,-(phenylmethyl) ester, trans-] | – | 144 | 522 | 56 | –
O=C(O)[C@@H]1CN(Cc2ccccc2)C[C@H]1C(=O)c1ccc(-c2ccc(Cl)cc2)cc1 (relative stereo) [Example 175, 3-Pyrrolidinecarboxylic acid, 4-[(4'-chloro[1,1'-biphenyl]-4-yl)carbonyl]-1-(phenylmethyl)-, trans-] | – | – | – | 5000 | inhibition at 5 µM [1]: 28%; inhibition at 5 µM [2]: 6%
O=C(O)[C@H]1[C@H](C(=O)c2ccc(-c3ccc(Cl)cc3)cc2)[C@H]2C=C[C@@H]1C2 (relative stereo) [Example 176, Bicyclo[2.2.1]hept-5-ene-2-carboxylic acid, 3-[(4'-chloro[1,1'-biphenyl]-4-yl)carbonyl]-, (2-endo-,3-exo)-] | – | – | – | 2000 | inhibition at 5 µM [1]: 26%; inhibition at 5 µM [2]: 24%
O=C(O)[C@@H]1[C@@H](C(=O)c2ccc(-c3ccc(Cl)cc3)cc2)[C@H]2C=C[C@@H]1C2 (relative stereo) [Example 177, Bicyclo[2.2.1]hept-5-ene-2-carboxylic acid, 3-[(4'-chloro[1,1'-biphenyl]-4-yl)carbonyl]-, (2-endo-,3-endo)-] | – | – | – | 4330 | inhibition at 5 µM [1]: 11%; inhibition at 5 µM [2]: 30%
O=C(O)c1ccccc1S[C@H]1CC[C@H](C(=O)c2ccc(-c3ccc(Cl)cc3)cc2)[C@H]1C(=O)O (relative stereo) [Example 301, Benzoic acid, 2-[[2-carboxy-3-[(4'-chloro[1,1'-biphenyl]-4-yl)carbonyl]cyclopentyl]thio]-, [1S-(1α,2α,3β)]-] | – | 30 | 290 | 18 | –
O=C(O)[C@H]1[C@@H](Sc2ccccc2)CC[C@@H]1C(=O)c1ccc(-c2ccc(Cl)cc2)cc1 (relative stereo) [Example 313, Cyclopentanecarboxylic acid, 2-[(4'-chloro[1,1'-biphenyl]-4-yl)carbonyl]-5-(phenylthio)-, (1α,2β,5α)-] | – | 3330 | – | 2780 | inhibition at 5 µM [2]: 20%
CCCCCOc1ccc(-c2ccc(C(=O)[C@H]3CC[C@H](Sc4ccccc4)[C@@H]3C(=O)O)cc2)cc1 (relative stereo) [Example 317, Cyclopentanecarboxylic acid, 2-[[4'-(pentyloxy)[1,1'-biphenyl]-4-yl]carbonyl]-5-(phenylthio)-, (1α,2β,5α)-] | – | 75 | 808 | 37 | –
O=C(O)[C@H]1[C@H](CN2C(=O)c3ccccc3C2=O)CC[C@@H]1C(=O)c1ccc(-c2ccc(Cl)cc2)cc1 (relative stereo) [Example 360, trans-5-[4-(4-chlorophenyl)phenylcarbonyl]-trans-2-phthalimidomethylcyclopentanecarboxylic acid] | – | 5.46 | 0.93 | 1.46 | –
Nc1cccc2c1C(=O)N(C[C@@H]1CC[C@H](C(=O)c3ccc(-c4ccc(Cl)cc4)cc3)[C@H]1C(=O)O)C2=O (relative stereo) [Example 392, Cyclopentanecarboxylic acid, 2-[(4-amino-1,3-dihydro-1,3-dioxo-2H-isoindol-2-yl)methyl]-5-[(4'-chloro[1,1'-biphenyl]-4-yl)carbonyl]-, (1α,2β,5β)-] | – | 2.5 | – | – | –
O=C(CC(CCN1C(=O)[C@H]2CC=CC[C@H]2C1=O)C(=O)O)c1ccc(-c2ccc(Cl)cc2)cc1 (relative stereo) [Example 413, 2H-Isoindole-2-butanoic acid, α-[2-(4'-chloro[1,1'-biphenyl]-4-yl)-2-oxoethyl]-1,3,3a,4,7,7a-hexahydro-1,3-dioxo-, cis-] | – | 39 | 109 | – | –
O=C(CC(CSc1ccccc1)C(=O)O)c1ccc(-c2ccc(Cl)cc2)cc1 (stereo not shown) [Example 196, 4-[4-(4-chlorophenyl)phenyl]-4-oxo-2-(phenylthiomethyl)butanoic acid] | – | – | 955 | 37 | IC50 [4]: 438 nM
O=C(O)CCC(CCCc1ccccc1)C(=O)c1ccc(-c2ccc(Cl)cc2)cc1 (stereo not shown) [Example 343, [1,1'-Biphenyl]-4-pentanoic acid, 4'-chloro-δ-oxo-γ-(phenylpropyl)-] | – | – | – | – | IC50 [5]: 500 nM; IC50 [4]: 680 nM
Cc1nc(-c2ccc(C(=O)CC(CC(C)C)C(=O)O)cc2)cs1 (stereo not drawn) [Example 348, Benzenebutanoic acid, α-(2-methylpropyl)-4-(2-methyl-4-thiazolyl)γ-oxo-] | 36 | – | – | – | inhibition at 5 µM [5]: 31%
O=C(CC(CCCc1ccccc1)C(=O)O)c1ccc(-c2ccc(Cl)cc2)s1 (stereo not drawn) [Example 349, 2-Thiophenebutanoic acid, 5-(4-chlorophenyl)-γ-oxo-α-(3-phenylpropyl)-] | – | – | – | – | IC50 [5]: 550 nM; IC50 [4]: 330 nM

The next lines start with results.

inhibition at 5 µM [4] [%] | SMILES | IC50 [1] [nM] | IC50 [2] [nM] | IC50 [3] [nM] | further results
14 | O=C(CC(CCCc1ccccc1)c1nnn[nH]1)c1ccc(-c2ccc(Br)cc2)cc1 (stereo not shown) [Example 344, 1-Hexanone, 1-(4'-bromo[1,1'-biphenyl]-4-yl)-6-phenyl-3-(1H-tetrazol-5-yl)-] | – | – | – | inhibition at 5 µM [5]: 11%
30 | O=C(CC(CCCc1ccccc1)P(=O)(O)O)c1ccc(-c2ccc(Br)cc2)cc1 (stereo not shown) [Example 345, Phosphonic acid, [1-[2-(4'-bromo[1,1'-biphenyl]-4-yl)-2-oxoethyl]-4-phenylbutyl]-] | – | – | – | IC50 [5]: 5000 nM
34 | CNC(=O)[C@@H]1CCCN1C(=O)C(CC(=O)c1ccc(-c2ccc(Cl)cc2)cc1)CC(C)C (stereo partly drawn) [Example 346, 2-Pyrrolidinecarboxamide, 1-[2-[2-(4'-chloro[1,1'-biphenyl]-4-yl)-2-oxoethyl]-4-metyl-1-oxopentyl]-N-methyl-, (2S)-] | – | – | – | IC50 [5]: 6000 nM
0 | Cc1nc(-c2ccc(C(=O)CC(CC(C)C)C(=O)O)cc2)co1 (stereo not drawn) [Example 347, Benzenebutanoic acid, 4-(2-methyl-4-oxazolyl)-α-(2-methylpropyl)-γ-oxo-] | – | – | – | inhibition at 5 µM [5]: 12%
20 | O=C(CC(CCCc1ccccc1)C(=O)O)c1ccc(-c2ccc(Cl)cc2)o1 (stereo not drawn) [Example 350, 2-Furanbutanoic acid, 5-(4-chlorohenyl)-γ-oxo-α-(3-phenylpropyl)-] | – | – | – | inhibition at 5 µM [5]: 4%
